Experimental data taken from patent publication US10196390B2, “TYK2 inhibitors and uses thereof” (Nimbus Lakshmi, Inc., priority 2014, dated 2019).
Read-outs that look alike come from different tables or passages of the source.

Experiments:
[1] = target: TYK2 (Homo sapiens (Human), UniProt P29597); test: Tyk2 activity inhibition assay (radioactive kinase assay / Caliper assay); assay type: biochemical
In short: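 Two formats were used. Caliper off-chip mobility shift read phosphorylated peptide 30 (3 uM) after 25 min at 28° C with 9.75 nM TYK2 and ATP at 16 uM or 1 mM. Radioactive assay: 10 μM 33P-ATP, 20 μM peptide, 120 min room temp, P81 filter counting.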

[2] = target: JAK2 (Homo sapiens (Human), UniProt O60674); test: JAK2 activity inhibition assay (radioactive kinase assay / Caliper assay); assay type: biochemical
JAK2, sequence (O60674 whole entry): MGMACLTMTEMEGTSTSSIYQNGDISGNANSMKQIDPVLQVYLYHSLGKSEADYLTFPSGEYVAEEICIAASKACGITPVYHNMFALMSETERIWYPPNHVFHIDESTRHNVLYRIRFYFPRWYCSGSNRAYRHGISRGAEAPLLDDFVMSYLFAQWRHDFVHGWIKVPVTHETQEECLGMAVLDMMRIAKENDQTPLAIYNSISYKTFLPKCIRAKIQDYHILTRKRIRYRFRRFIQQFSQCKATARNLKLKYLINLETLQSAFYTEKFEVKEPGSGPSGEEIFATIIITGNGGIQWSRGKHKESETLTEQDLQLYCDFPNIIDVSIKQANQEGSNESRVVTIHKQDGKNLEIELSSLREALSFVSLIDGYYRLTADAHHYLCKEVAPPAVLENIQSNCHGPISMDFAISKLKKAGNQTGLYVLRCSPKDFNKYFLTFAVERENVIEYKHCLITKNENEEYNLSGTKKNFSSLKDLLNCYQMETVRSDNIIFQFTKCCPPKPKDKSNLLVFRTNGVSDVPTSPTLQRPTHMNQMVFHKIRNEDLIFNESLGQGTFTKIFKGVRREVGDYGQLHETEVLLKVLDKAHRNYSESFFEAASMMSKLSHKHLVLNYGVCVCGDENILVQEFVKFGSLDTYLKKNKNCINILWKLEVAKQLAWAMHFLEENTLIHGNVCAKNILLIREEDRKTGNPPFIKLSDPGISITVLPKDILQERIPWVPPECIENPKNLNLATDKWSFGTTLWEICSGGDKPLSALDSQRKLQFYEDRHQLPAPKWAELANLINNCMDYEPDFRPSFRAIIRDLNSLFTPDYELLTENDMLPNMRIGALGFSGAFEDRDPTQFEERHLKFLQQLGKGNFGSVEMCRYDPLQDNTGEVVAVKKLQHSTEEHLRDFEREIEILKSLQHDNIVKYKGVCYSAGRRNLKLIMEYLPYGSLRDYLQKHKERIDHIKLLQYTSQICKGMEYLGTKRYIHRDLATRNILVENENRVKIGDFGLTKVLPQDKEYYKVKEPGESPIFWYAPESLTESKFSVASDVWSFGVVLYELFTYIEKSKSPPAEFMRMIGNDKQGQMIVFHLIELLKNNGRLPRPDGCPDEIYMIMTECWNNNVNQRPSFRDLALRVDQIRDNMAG
In short: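 Reaction ran 25 min at 28° C after adding peptide/ATP mix (10 mM MgCl2) to compound and enzyme in HEPES pH 7.5 buffer with Brij-35, Triton and EGTA. EDTA stop, then microfluidic off-chip separation quantified phosphorylated peptide.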

[3] = tested on: Tyk2-pSTAT4; test: IL-12 induced pSTAT4 in human PBMC; assay type: cell-based; conditions: read-out: Tyk2-pSTAT4 EC50
Procedure: (§1) Human PBMC are isolated from buffy coat and are stored frozen for assays as needed. Cells for assay are thawed and resuspended in complete media containing serum, then cells are diluted to 1.67 E6 cells/ml so that 120 μl per well is 200,000 cells. 15 μl of compound or DMSO is added to the well at the desired concentrations and incubated at 1 hr at 37 C. 15 μl of stimulus (final concentration of 1.7 ng/mL IL-12) is added for 30 minutes prior to pSTAT4 and total STAT4 analysis using cell lysates prepared and analyzed by MSD reagents as per manufacturer protocol. The final DMSO concentration of compound in the assay is 0.1%.

[4] = tested on: JAK2-pSTAT5; test: GM-CSF induced pSTAT5 in human PBMC; assay type: cell-based; conditions: read-out: JAK2-pSTAT5 EC50
Procedure: as §1, with “Cells for assay are thawed and resuspended in complete media containing serum, then cells are diluted to 1.67 E6 cells/ml so that 120 μl per well is 200,000 cells.” left out
Cells are prepared for analysis as in the above procedure and 15 μl of GM-CSF (final concentration 5 ng/mL) is added for 20 minutes prior to pSTAT5 and total STAT5 analysis using cell lysates prepared and analyzed by MSD reagents as per manufacturer protocol. The final DMSO concentration of compound in the assay is 0.1%.

[5] = IL-12 induced pSTAT4, human PBMC
[6] = GM-CSF induced pSTAT5, human PBMC

TYK2, sequence (P29597 whole entry): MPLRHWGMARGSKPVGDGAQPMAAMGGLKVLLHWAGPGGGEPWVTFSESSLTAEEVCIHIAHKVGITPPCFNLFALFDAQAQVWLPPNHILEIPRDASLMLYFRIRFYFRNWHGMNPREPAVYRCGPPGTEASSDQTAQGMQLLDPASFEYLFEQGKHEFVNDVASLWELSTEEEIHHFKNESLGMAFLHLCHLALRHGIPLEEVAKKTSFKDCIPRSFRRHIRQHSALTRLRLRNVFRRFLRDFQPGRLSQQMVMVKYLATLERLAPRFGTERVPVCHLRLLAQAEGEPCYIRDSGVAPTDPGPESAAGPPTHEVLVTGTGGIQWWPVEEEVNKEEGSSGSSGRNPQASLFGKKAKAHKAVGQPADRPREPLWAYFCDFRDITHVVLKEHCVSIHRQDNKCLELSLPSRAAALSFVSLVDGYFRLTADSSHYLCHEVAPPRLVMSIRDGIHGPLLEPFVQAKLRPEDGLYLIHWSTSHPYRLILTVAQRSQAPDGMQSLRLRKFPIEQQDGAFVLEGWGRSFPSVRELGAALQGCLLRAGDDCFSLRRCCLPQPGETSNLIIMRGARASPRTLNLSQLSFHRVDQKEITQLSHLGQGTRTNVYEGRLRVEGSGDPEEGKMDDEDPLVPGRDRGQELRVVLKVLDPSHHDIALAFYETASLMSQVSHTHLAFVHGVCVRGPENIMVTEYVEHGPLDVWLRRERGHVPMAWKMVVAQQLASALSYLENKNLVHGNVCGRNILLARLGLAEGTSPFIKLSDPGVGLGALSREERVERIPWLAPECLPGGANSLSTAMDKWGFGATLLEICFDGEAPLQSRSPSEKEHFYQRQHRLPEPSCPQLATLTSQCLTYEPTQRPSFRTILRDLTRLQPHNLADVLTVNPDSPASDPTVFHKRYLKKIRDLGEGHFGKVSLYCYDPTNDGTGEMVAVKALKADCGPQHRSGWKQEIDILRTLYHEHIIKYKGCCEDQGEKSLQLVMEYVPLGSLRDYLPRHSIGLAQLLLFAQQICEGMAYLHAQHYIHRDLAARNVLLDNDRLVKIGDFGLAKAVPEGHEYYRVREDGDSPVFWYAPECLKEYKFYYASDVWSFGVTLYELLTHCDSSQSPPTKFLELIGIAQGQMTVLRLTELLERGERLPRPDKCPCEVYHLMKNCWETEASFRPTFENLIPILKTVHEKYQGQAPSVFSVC

Compound | Ki [1] | Ki ([2]; read-out: JAK2 Ki) | EC50 [3, 5] | EC50 [4, 6] | EC50 ([3]; Homo sapiens, PBMC) | EC50 ([4]; Homo sapiens, PBMC) | Ki [2]
CC1(O)CCN(c2ccc(Nc3cc(-c4c(F)cccc4F)nc4c3C(=O)NC4)nc2)CC1 [Compound I-137, 2-(2,6-difluorophenyl)-4-((5-(4-hydroxy-4-methylpiperidin-1-yl)pyridin-2-yl)amino)-6,7-dihydro-5H-pyrrolo[3,4-b]pyridin-5-one] | < 0.01 µM | 0.01 to 0.1 µM | < 2 µM | < 2 µM | – | – | –
O=C1NCc2nc(-c3c(F)cccc3F)cc(Nc3ccc(C(=O)N4CCOCC4)cc3)c21 [Compound I-231, 2-(2,6-difluorophenyl)-4-((4-(morpholine-4-carbonyl)-phenyl)amino)-6,7-dihydro-5H-pyrrolo[3,4-b]pyridin-5-one] | < 0.01 µM | 0.01 to 0.1 µM | – | 2 to 20 µM | < 2 µM | – | –
O=C1NCc2nc(-c3c(F)cccc3F)cc(Nc3ccc(NC4CCC4)cn3)c21 [Compound I-276, 4-((5-(cyclobutylamino)pyridin-2-yl)amino)-2-(2,6-difluoro-phenyl)-6,7-dihydro-5H-pyrrolo[3,4-b]pyridin-5-one] | < 0.01 µM | 0.01 to 0.1 µM | < 2 µM | < 2 µM | – | – | –
O=C(NCC(F)(F)F)c1ccc(Nc2cc(-c3c(F)cccc3F)nc3c2C(=O)NC3)nc1 [Compound I-140, 6-((2-(2,6-difluorophenyl)-5-oxo-6,7-dihydro-5H-pyrrolo[3,4-b]pyridin-4-yl)amino)-N-(2,2,2-trifluoroethyl)nicotinamide] | < 0.01 µM | 0.01 to 0.1 µM | < 2 µM | 2 to 20 µM | – | – | –
C[C@H]1COCCN1C(=O)Cc1ccc(Nc2nc(-c3c(F)cccc3F)nc3c2C(=O)NC3)cc1 [Compound I-64, (S)-2-(2,6-difluorophenyl)-4-((4-(2-(3-methylmorpholino)-2-oxoethyl)phenyl)amino)-6,7-dihydro-5H-pyrrolo[3,4-d]pyrimidin-5-one] | < 0.01 µM | 0.1 to 1 µM | < 2 µM | > 20 µM | – | – | –
O=C1NCc2nc(-c3c(F)cccc3F)nc(Nc3ccc(C4CCN(C5CCC5)C4=O)cc3)c21 (stereo not drawn) [Compound I-117, 4-((4-(1-cyclobutyl-2-oxopyrrolidin-3-yl)phenyl)amino)-2-(2,6-difluorophenyl)-6,7-dihydro-5H-pyrrolo[3,4-d]pyrimidin-5-one] | < 0.01 µM | 0.1 to 1 µM | – | – | < 2 µM | > 20 µM | –
C[C@@H](C(=O)N1CCCCC1)c1ccc(Nc2nc(-c3c(F)cccc3F)nc3c2C(=O)NC3)cc1 [Compound I-207, (R)-2-(2,6-difluorophenyl)-4-((4-(1-oxo-1-(piperidin-1-yl)propan-2-yl)phenyl)amino)-6,7-dihydro-5H-pyrrolo[3,4-d]pyrimidin-5-one] | < 0.01 µM | 0.1 to 1 µM | – | – | < 2 µM | 2 to 20 µM | –
O=C1NCc2nc(-c3c(F)cccc3F)cc(Nc3ccc(N4CCC(N5CCOCC5)CC4)cn3)c21 [Compound I-142, 2-(2,6-difluorophenyl)-4-((5-(4-morpholinopiperidin-1-yl)pyridin-2-yl)amino)-6,7-dihydro-5H-pyrrolo[3,4-b]pyridin-5-one] | < 0.01 µM | 0.01 to 0.1 µM | < 2 µM | > 20 µM | – | – | –
O=C1NCc2nc(-c3c(F)cccc3F)nc(Nc3ccc(Cn4ccnn4)cc3)c21 [Compound I-128, 4-((4-((1H-1,2,3-triazol-1-yl)methyl)phenyl)amino)-2-(2,6-difluorophenyl)-6,7-dihydro-5H-pyrrolo[3,4-d]pyrimidin-5-one] | < 0.01 µM | 0.1 to 1 µM | – | – | < 2 µM | > 20 µM | –
O=C1NCc2nc(-c3c(F)cccc3F)nc(Nc3ccc([C@H]4CCNC4=O)cc3)c21 [Compound I-86, (R)-2-(2,6-difluorophenyl)-4-((4-(2-oxopyrrolidin-3-yl)phenyl)amino)-6,7-dihydro-5H-pyrrolo[3,4-d]pyrimidin-5-one] | < 0.01 µM | 0.01 to 0.1 µM | < 2 µM | > 20 µM | – | – | –
O=C1NCc2nc(-c3c(F)cccc3F)nc(Nc3ccc([C@H]4CCCNC4=O)cc3)c21 [Compound I-154, (R)-2-(2,6-difluorophenyl)-4-((4-(2-oxopiperidin-3-yl)phenyl)amino)-6,7-dihydro-5H-pyrrolo[3,4-d]pyrimidin-5-one] | < 0.01 µM | 0.1 to 1 µM | < 2 µM | > 20 µM | – | – | –
COc1ccc(Nc2cc(-c3c(F)cccc3F)nc3c2C(=O)NC3)nc1 [Compound I-167, 2-(2,6-difluorophenyl)-4-((5-methoxypyridin-2-yl)amino)-6,7-dihydro-5H-pyrrolo[3,4-b]pyridin-5-one] | < 0.01 µM | 0.1 to 1 µM | < 2 µM | > 20 µM | – | – | –
COc1ccc(Nc2cc(-c3c(F)cccc3F)nc3c2C(=O)NC3)nc1OC [Compound I-170, 2-(2,6-difluorophenyl)-4-((5,6-dimethoxypyridin-2-yl)amino)-6,7-dihydro-5H-pyrrolo[3,4-b]pyridin-5-one] | < 0.01 µM | 0.01 to 0.1 µM | < 2 µM | 2 to 20 µM | – | – | –
CCNC(=O)Cc1ccc(Nc2cc(-c3c(F)cccc3F)nc3c2C(=O)NC3)nc1 [Compound I-88, 2-(6-((2-(2,6-difluorophenyl)-5-oxo-6,7-dihydro-5H-pyrrolo[3,4-b]pyridin-4-yl)amino)pyridin-3-yl)-N-ethylacetamide] | 0.01 to 0.1 µM | 0.1 to 1 µM | – | – | < 2 µM | < 2 µM | –
CC(C)NC(=O)c1ccc(Nc2cc(-c3c(F)cccc3F)nc3c2C(=O)NC3)cc1 [Compound I-232, 4-((2-(2,6-difluorophenyl)-5-oxo-6,7-dihydro-5H-pyrrolo[3,4-b]pyridin-4-yl)amino)-N-isopropylbenzamide] | < 0.01 µM | 0.01 to 0.1 µM | – | – | < 2 µM | 2 to 20 µM | –
CN1CCC(C)(c2ccc(Nc3nc(-c4c(F)cccc4F)nc4c3C(=O)NC4)cc2)C1=O (stereo not drawn) [Compound I-150, 2-(2,6-difluorophenyl)-4-((4-(1,3-dimethyl-2-oxopyrrolidin-3-yl)phenyl)amino)-6,7-dihydro-5H-pyrrolo[3,4-d]pyrimidin-5-one] | < 0.01 µM | 0.01 to 0.1 µM | < 2 µM | 2 to 20 µM | – | – | –
O=C1NCc2nc(-c3c(F)cccc3Cl)nc(Nc3ccc([C@@H]4CCNC4=O)cc3)c21 [Compound I-115, (S)-2-(2-chloro-6-fluorophenyl)-4-((4-(2-oxopyrrolidin-3-yl)phenyl)amino)-6,7-dihydro-5H-pyrrolo[3,4-d]pyrimidin-5-one] | 0.01 to 0.1 µM | 0.1 to 1 µM | < 2 µM | 2 to 20 µM | – | – | –
CC(C)(C(=O)N1CCCC1)c1ccc(Nc2nc(-c3c(F)cccc3F)nc3c2C(=O)NC3)cc1 [Compound I-196, 2-(2,6-difluorophenyl)-4-((4-(2-methyl-1-oxo-1-(pyrrolidin-1-yl)propan-2-yl)phenyl)amino)-6,7-dihydro-5H-pyrrolo[3,4-d]pyrimidin-5-one] | < 0.01 µM | 0.1 to 1 µM | < 2 µM | > 20 µM | – | – | –
O=C1NCc2nc(-c3c(F)cccc3F)cc(Nc3ccc(N4CCC(O)CC4)cn3)c21 [Compound I-147, 2-(2,6-difluorophenyl)-4-((5-(4-hydroxypiperidin-1-yl)pyridin-2-yl)amino)-6,7-dihydro-5H-pyrrolo[3,4-b]pyridin-5-one] | < 0.01 µM | 0.01 to 0.1 µM | < 2 µM | < 2 µM | – | – | –
CN1CCN(C(=O)Cc2ccc(Nc3nc(-c4c(F)cccc4F)nc4c3C(=O)NC4)cc2)CC1 [Compound I-67, 2-(2,6-difluorophenyl)-4-((4-(2-(4-methylpiperazin-1-yl)-2-oxoethyl)phenyl)amino)-6,7-dihydro-5H-pyrrolo[3,4-d]pyrimidin-5-one] | < 0.01 µM | – | < 2 µM | > 20 µM | – | – | 0.01 to 0.1 µM
CC(C)NC(=O)c1ccc(Nc2cc(-c3c(F)cccc3F)nc3c2C(=O)NC3)nc1 [Compound I-138, 6-((2-(2,6-difluorophenyl)-5-oxo-6,7-dihydro-5H-pyrrolo[3,4-b]pyridin-4-yl)amino)-N-isopropylnicotinamide] | < 0.01 µM | 0.01 to 0.1 µM | – | – | < 2 µM | 2 to 20 µM | –
